Where a name gives a salt, the structure may show the parent alone.
Assays:
allergic conjunctivitis = assay: TDI-induced allergic conjunctivitis model, eye dropping; format: in vivo, female Hartley guinea pigs
Method: A variety of the keratan sulfate oligosaccharide was dropped in the eyes of the guinea pigs subjected to the induction of allergic conjunctivitis to examine the effect thereof.
Toluene diisocyanate (hereinafter referred to as TDI) was diluted with ethyl acetate to a concentration of 10%. To the bilateral vestibule of noses of 10 female Hartley guinea pigs of from about 900 to 1,000 g weight, the 10% TDI (10 μl/animal) obtained above was applied once a day for five days to prepare the TDI sensitization models. The PBS solution of the purified keratan sulfate tetrasaccharide (I) ([…]) which was prepared in Example 1 was dropped in the left eyes of the TDI sensitization models, while PBS was dropped in the right eyes as the control. The dose of dropping was one drop (48+4.6 μl (S.D.)) each from the eye dropper. After 10 minutes, 6.5 μl of 10% TDI was dropped to the both eyes to induce conjunctivitis. After five minutes standing, furthermore, the PBS solution of the keratan sulfate tetrasaccharide (I) ([…]) was dropped in the left eyes, and PBS was dropped in the right eyes. After 15 minutes, observation of the both eyes were carried out. The degree of conjunctivitis was evaluated regarding three items of hyperemia, edema and lacrimation into four grades such as point 0, +1, +2 and +3. In the figure, * represents that it has the significant difference with p<0.05 (wherein "p" means a level of significance by the .chi.^2 test).
The PBS solution of the purified keratan sulfate disaccharide (III), the keratan sulfate tetrasaccharide (I), and the keratan sulfate pentasaccharide (II) (6.0 mg/ml, respectively)which were prepared in Example 1 described above as the test substances were dropped, respectively, in the left eyes of the TDI sensitization models of 10 animals a group each which were prepared in the same manner as in (1) described above, and PBS was dropped in the right eyes as the control. The degree of conjunctivitis was evaluated in the same manner as in (1) described above. In the figure, * represents that it has the significant difference with p<0.05 (wherein "p" means a level of significance by the .chi.^2 test).
The PBS solution containing the purified keratan sulfate tetrasaccharide (I) which was prepared in Example 1 described above, at varieties of concentrations (6 mg/ml, 3 mg/ml, 1.5 mg/ml or 0.75 mg/ml) as the test substance, were dropped, respectively, in the left eyes of the TDI sensitization models of 10 animals a group each which were prepared in the same manner as in (1) described above, and PBS was dropped in the right eyes as the control. The degree of conjunctivitis was evaluated in the same manner as in (1) described above. In the figure, * represents that it has the significant differnce with p<0.05 (wherein "p" means a level of significance by the .chi.^2 test).

[1] = test system: neutrophile of guinea pig; assay: Inhibition of active oxygen (O2^-) generation in FMLP-stimulated neutrophile; format: cell-based, female Hartley guinea pigs
Method: To female Hartley guinea pigs of five weeks old (purchased from Japan SLC), 20 ml of the 0.2% aqueous solution of glycogen (Type II; Oyster; Sigma) dissolved in saline which was previously sterilized with autoclave, was intraperitoneally administered. The guinea pigs were sacrificed by bleeding 16 hours after the administration, and 20 ml of the saline containing heparin at a concentration of 10 U/ml was intraperitoneally injected to recover the peritoneal exudate. Hereinafter all the operations were carried out under ice-water cooling condition except for incubation. The recovered exudate was centrifuged at 1,000 rpm for 10 minutes, the precipitate obtained was hemolyzed with purified water for 30 seconds, and returned into isotonicity with the Hanks' solution at double the concentration (not containing phenol red; Nissui Seiyaku), and further it was centrifuged at 1,000 rpm for 10 minutes. The precipitate obtained was suspended in the Hanks' solution and centrifuged and the operations were repeated once more to give the neutrophile.
The collected neutrophile of the guinea pigs was suspended in the Hanks' solution, the number of leukocyte in the suspension was determined by a cytometer (System K-2000; Toa Iyo Denshi Co.), and the suspension diluted with the Hanks' solution to 2×10^6 cells/ml was used in the determination as the cell suspension. After mixing 1 ml of the cell suspension and 10 μl of the purified keratan sulfate oligosaccharide (keratan sulfate tetrasaccharide (I), the keratan sulfate pentasaccharide (II), or the keratan sulfate disaccharide (III)) prepared in Example 1 described above, and the mixture was preincubated at 37° C. for an hour. […]
The supernatant obtained by the centrifugation was separated and the absorbance thereof was determined at 550 nm to estimate the quantity of reducing cytochrome c per 2×10^6 cells after the 10 minutes incubation. The quantity of reducing cytochrome c increases with the generation of active oxygen (O2^-). […]

[2] = 6.0 mg/ml eye drop, comparison of oligosaccharides

SMILES	degree of conjunctivitis: hyperemia, edema and lacrimation (FIG. 12) (allergic conjunctivitis; [2])	inhibitory function for generation of active oxygen (O2^-) (FIG. 10) [1]	degree of conjunctivitis: edema (FIG. 12) (allergic conjunctivitis; 6.0 mg/ml eye drop, comparison of oligosaccharides, p<0.05)	degree of conjunctivitis: edema (FIG. 13) (allergic conjunctivitis; 6 mg/ml, 3 mg/ml, and 1.5 mg/ml eye drop, p<0.05)	degree of conjunctivitis: hyperemia, edema and lacrimation (FIG. 11) (allergic conjunctivitis; 100 mg/ml eye drop)	degree of conjunctivitis: edema (FIG. 11) (allergic conjunctivitis; 100 mg/ml eye drop, p<0.05)	degree of conjunctivitis: hyperemia, edema and lacrimation (FIG. 13) (allergic conjunctivitis; 6, 3, 1.5 and 0.75 mg/ml eye drop)	inhibition of generation of active oxygen (O2^-) (FIG. 10) ([1]; 0.01, 0.1 and 1.0 mg/ml)
CC(=O)N[C@H]1C(O)O[C@H](COS(=O)(=O)O)[C@@H](O[C@@H]2O[C@H](COS(=O)(=O)O)[C@H](O)[C@H](O)[C@H]2O)[C@@H]1O (stereo partly drawn) [keratan sulfate disaccharide (III), Gal(6S)β1-4GlcNAc(6S)]	tended to show inhibition in all the items	slightly observed						
CC(=O)N[C@H]1[C@H](O[C@H]2[C@@H](O)[C@@H](COS(=O)(=O)O)O[C@@H](O[C@H]3[C@H](O)[C@@H](NC(C)=O)C(O)O[C@@H]3COS(=O)(=O)O)[C@@H]2O)O[C@H](COS(=O)(=O)O)[C@@H](O[C@@H]2O[C@H](COS(=O)(=O)O)[C@H](O)[C@H](O)[C@H]2O)[C@@H]1O (stereo partly drawn) [keratan sulfate tetrasaccharide (I), Gal(6S)β1-4GlcNAc(6S)β1-3Gal(6S)β1-4GlcNAc(6S)]	tended to show inhibition in all the items		shows a significant inhibitory effect on edema	showed a significant inhibitory effect on edema	tended to show inhibition in all the items	significantly inhibited edema compared with the control	tended to show inhibition in all the items	remarkably inhibits the generation of active oxygen (O2^-) depending upon the concentration

— patent publication US5939403A, “Keratan sulfate oligosaccharide fraction and pharmaceutical containing the same” (Seikagaku Corporation, priority 1994, dated 1999)
